Source: patent US10167262B2, “Herbicidal substituted 3-arylpyrazoles” (FMC CORPORATION, priority 2014, dated 2019)

Columns and labels:
Format in all cases: in vivo
[1] = tested on: morningglory (Ipomoea spp.); assay: Test A pre-/postemergence greenhouse herbicide test, visual injury rating 0-100
Summary of the method: (§1)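 Visual injury scored on a 0–100 scale versus untreated controls roughly 10 days after treatment in greenhouse. Treatments were preemergence soil sprays plus postemergence sprays to plants 2–10 cm tall at one- to two-leaf stage, in a surfactant-containing solvent formulation.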

[2] = tested on: large (Lg) crabgrass (Digitaria sanguinalis); assay: as above
Summary of the method: as §1

[3] = tested on: wheat (Triticum aestivum); assay: as above
Summary of the method: as §1

[4] = tested on: giant foxtail (Setaria faberii); assay: as above
Summary of the method: as §1

corn (Zea mays) = assay: as above
Summary of the method: as §1

[5] = tested on: pigweed (Amaranthus retroflexus); assay: as above
Summary of the method: as §1

[6] = tested on: velvetleaf (Abutilon theophrasti); assay: as above
Summary of the method: as §1

[7] = tested on: barnyardgrass (Echinochloa crus-galli); assay: as above
Summary of the method: as §1

wild oat (Avena fatua) = assay: Test C postemergence greenhouse test, plant response rating 0-100; details: for Plant response rating, Oat, Wild: scale 0 to 100
Description: (§2) At the same time, plants selected from these crop and weed species and also winter barley (Hordeum vulgare), bermudagrass (Cynodon dactylon), downy bromegrass (Bromus tectorum), canarygrass (Phalaris minor), cocklebur (common cocklebur, Xanthium strumarium), woolly cupgrass (Eriochloa villosa), deadnettle (henbit deadnettle, Lamium amplexicaule), green foxtail (Setaria viridis), goosegrass (Eleusine indica), surinam grass (Brachiaria decumbens), windgrass (Apera spica-venti), chickweed (common chickweed, Stellaria media), kochia (Kochia scoparia), and wild oat (Avena fatua), were planted in pots containing Redi-Earth® planting medium (Scotts Company, 14111 Scottslawn Road, Marysville, Ohio 43041) comprising spaghnum peat moss, vermiculite, wetting agent and starter nutrients and treated with postemergence applications of test chemicals formulated in the same manner. Plants ranged in height from 2 to 18 cm (1- to 4-leaf stage) for postemergence treatments. Treated plants and controls were maintained in a greenhouse for 13 to 15 days, after which time all species were compared to controls and visually evaluated. Plant response ratings, summarized in Table C, are based on a scale of 0 to 100 where 0 is no effect and 100 is complete control. A dash (-) response means no test result.

kochia (Kochia scoparia) = assay: as above; details: for Plant response rating, Kochia: scale 0 to 100
Description: as §2

[8] = tested on: chickweed (common chickweed, Stellaria media); assay: as above; details: for Plant response rating, Chickweed: scale 0 to 100
Description: as §2

[9] = tested on: giant foxtail (Setaria faberii); assay: Test C pre-/postemergence greenhouse test, plant response rating 0-100
Description: (§3) Seeds of plant species selected from blackgrass (Alopecurus myosuroides), Italian ryegrass (Lolium multiflorum), winter wheat (Triticum aestivum), galium (catchweed bedstraw, Galium aparine), corn (Zea mays), large (Lg) crabgrass (Digitaria sanguinalis), giant foxtail (Setaria faberii), johnsongrass (Sorghum halepense), lambsquarters (Chenopodium album), morningglory (Ipomoea coccinea), yellow nutsedge (Cyperus esculentus), pigweed (Amaranthus retroflexus), ragweed (common ragweed, Ambrosia elatior), soybean (Glycine max), barnyardgrass (Echinochloa crus-galli), oilseed rape (Brassica napus), waterhemp (common waterhemp, Amaranthus rudis), and velvetleaf (Abutilon theophrasti) were planted into a blend of loam soil and sand and treated preemergence with test chemicals formulated in a non-phytotoxic solvent mixture which included a surfactant.
as §2

soybean (Glycine max) = assay: as above
Description: as §3, §2

[10] = tested on: Italian ryegrass (Lolium multiflorum); assay: as above
Description: as §3, §2

[11] = Postemergence, 250 g ai/ha, scale 0 to 100
[12] = Postemergence, 500 g ai/ha, scale 0 to 100
[13] = Preemergence, 0 to 100 scale (0 no effect, 100 complete control), rate 500 g ai/ha per head r3, sub-head of this section not shown

Q: What does the source list for `O=C(c1ccccc1)c1cn(S(=O)(=O)CC(F)(F)F)nc1-c1cc(Cl)cc(Cl)c1` [Compound 3]?
A: Plant response rating (0 to 100 scale), Morningglory ([1]; Postemergence, 125 g ai/ha): 0; Plant response rating (0 to 100 scale), Morningglory ([1]; Postemergence, 500 g ai/ha): 0; Morningglory plant response rating (0 = no effect, 100 = complete control) ([1]; Preemergence, 125 g ai/ha): 0; Plant response rating (0 to 100 scale), Morningglory ([1]; Preemergence, 500 g ai/ha): 0; Plant response rating (0 to 100 scale), Crabgrass, Large ([2]; Postemergence, 125 g ai/ha): 0; Plant response rating (0 to 100 scale), Crabgrass, Large ([2]; Postemergence, 500 g ai/ha): 0; Crabgrass, Large plant response rating (0 = no effect, 100 = complete control) ([2]; Preemergence, 125 g ai/ha): 0; Plant response rating (0 to 100 scale), Crabgrass, Large ([2]; Preemergence, 500 g ai/ha): 0; Plant response rating (0 to 100 scale), Wheat ([3]; Postemergence, 125 g ai/ha): 0; Plant response rating (0 to 100 scale), Wheat ([3]; Postemergence, 500 g ai/ha): 0; Wheat plant response rating (0 = no effect, 100 = complete control) ([3]; Preemergence, 125 g ai/ha): 0; Plant response rating (0 to 100 scale), Wheat ([3]; Preemergence, 500 g ai/ha): 0; Plant response rating (0 to 100 scale), Foxtail, Giant ([4]; Postemergence, 125 g ai/ha): 0; Plant response rating (0 to 100 scale), Foxtail, Giant ([4]; Postemergence, 500 g ai/ha): 0; Foxtail, Giant plant response rating (0 = no effect, 100 = complete control) ([4]; Preemergence, 125 g ai/ha): 0; Plant response rating (0 to 100 scale), Foxtail, Giant ([4]; Preemergence, 500 g ai/ha): 0; Plant response rating (0 to 100 scale), Corn (corn (Zea mays); Postemergence, 125 g ai/ha): 0; Plant response rating (0 to 100 scale), Corn (corn (Zea mays); Postemergence, 500 g ai/ha): 0; Corn plant response rating (0 = no effect, 100 = complete control) (corn (Zea mays); Preemergence, 125 g ai/ha): 0; Plant response rating (0 to 100 scale), Corn (corn (Zea mays); Preemergence, 500 g ai/ha): 0; Plant response rating (0 to 100 scale), Pigweed ([5]; Postemergence, 125 g ai/ha): 80; Plant response rating (0 to 100 scale), Pigweed ([5]; Postemergence, 500 g ai/ha): 100; Pigweed plant response rating (0 = no effect, 100 = complete control) ([5]; Preemergence, 125 g ai/ha): 60; Plant response rating (0 to 100 scale), Pigweed ([5]; Preemergence, 500 g ai/ha): 80; Plant response rating (0 to 100 scale), Velvetleaf ([6]; Postemergence, 125 g ai/ha): 90; Plant response rating (0 to 100 scale), Velvetleaf ([6]; Postemergence, 500 g ai/ha): 100; Velvetleaf plant response rating (0 = no effect, 100 = complete control) ([6]; Preemergence, 125 g ai/ha): 0; Plant response rating (0 to 100 scale), Velvetleaf ([6]; Preemergence, 500 g ai/ha): 50; Plant response rating (0 to 100 scale), Barnyardgrass ([7]; Postemergence, 125 g ai/ha): 0; Plant response rating (0 to 100 scale), Barnyardgrass ([7]; Postemergence, 500 g ai/ha): 0; Barnyardgrass plant response rating (0 = no effect, 100 = complete control) ([7]; Preemergence, 125 g ai/ha): 0; Plant response rating (0 to 100 scale), Barnyardgrass ([7]; Preemergence, 500 g ai/ha): 0; Plant response rating (0 to 100), Oat, Wild (wild oat (Avena fatua); 62 g ai/ha): 0; Plant response rating (0 to 100), Oat, Wild (wild oat (Avena fatua); 125 g ai/ha): 0; Plant response rating, Oat, Wild (wild oat (Avena fatua); 250 g ai/ha): 0; Plant response rating, Oat, Wild (wild oat (Avena fatua); 500 g ai/ha): 0; Plant response rating (0 to 100), Kochia (kochia (Kochia scoparia); 62 g ai/ha): 80; Plant response rating (0 to 100), Kochia (kochia (Kochia scoparia); 125 g ai/ha): 85; Plant response rating, Kochia (kochia (Kochia scoparia); 250 g ai/ha): 85; Plant response rating, Kochia (kochia (Kochia scoparia); 500 g ai/ha): 85; Plant response rating (0 to 100), Chickweed ([8]; 62 g ai/ha): 100; Plant response rating (0 to 100), Chickweed ([8]; 125 g ai/ha): 100; Plant response rating, Chickweed ([8]; 250 g ai/ha): 100; Plant response rating, Chickweed ([8]; 500 g ai/ha): 100; Plant response rating (0 to 100), Foxtail, Giant ([9]; Postemergence, 62 g ai/ha): 0; Plant response rating (0 to 100), Foxtail, Giant ([9]; Postemergence, 125 g ai/ha): 0; Plant response rating, Foxtail, Giant [9, 11]: 0; Plant response rating, Foxtail, Giant [9, 12]: 0; Plant response rating, Foxtail, Giant ([9]; Preemergence, 62 g ai/ha): 0; Plant response rating, Foxtail, Giant ([9]; Preemergence, 125 g ai/ha): 0; Plant response rating, Foxtail, Giant ([9]; Preemergence, 250 g ai/ha): 0; Plant response rating, Foxtail, Giant ([9]; Preemergence, 500 g ai/ha): 0; Plant response rating (0 to 100), Soybean (soybean (Glycine max); Postemergence, 62 g ai/ha): 0; Plant response rating (0 to 100), Soybean (soybean (Glycine max); Postemergence, 125 g ai/ha): 0; Plant response rating, Soybean (soybean (Glycine max); [11]): 0; Plant response rating, Soybean (soybean (Glycine max); [12]): 0; Plant response rating, Soybean (soybean (Glycine max); Preemergence, 62 g ai/ha): 0; Plant response rating, Soybean (soybean (Glycine max); Preemergence, 125 g ai/ha): 0; Plant response rating, Soybean (soybean (Glycine max); Preemergence, 250 g ai/ha): 0; Plant response rating, Soybean (soybean (Glycine max); Preemergence, 500 g ai/ha): 0; Plant response rating, Soybean (soybean (Glycine max); [13]): 0; Plant response rating (0 to 100), Ryegrass, Italian ([10]; Postemergence, 62 g ai/ha): 0; Plant response rating (0 to 100), Ryegrass, Italian ([10]; Postemergence, 125 g ai/ha): 0; Plant response rating, Ryegrass, Italian [10, 11]: 0; Plant response rating, Ryegrass, Italian [10, 12]: 0; Plant response rating, Ryegrass, Italian ([10]; Preemergence, 62 g ai/ha): 0; Plant response rating, Ryegrass, Italian ([10]; Preemergence, 125 g ai/ha): 0; Plant response rating, Ryegrass, Italian ([10]; Preemergence, 250 g ai/ha): 0; Plant response rating, Ryegrass, Italian ([10]; Preemergence, 500 g ai/ha): 0; Plant response rating, Ryegrass, Italian [10, 13]: 0
